The text below walks through data of US7094797B2, “Organ fibrosis inhibitor” (Ajinomoto Co., Inc., priority 2001, dated 2006).

For assay [1], the system named is Hepatic stellate cells. The experiment in a line: PDGF-stimulated DNA synthesis (BrdU uptake, ELISA) of Hepatic stellate cells. The note with it: PDGF 25 ng/ml. In kind it is cell-based, rat. Here is the method:
Hepatic stellate cells were isolated from a male Wistar rat liver and were cultured by the liver perfusion method with pronase E and collagenase. Hepatic stellate cells on day 8 to day 14 were cultured overnight in a culture medium containing 10 vol. % fetal calf serum (FCS). The culture medium was replaced with a culture medium containing 0.1 vol. % FCS, and it was cultured for 48 hours. Subsequently, L-histidine as the test substance was added in an amount to give a concentration of 1 to 30 mM. Then, further, platelet-derived growth factor (PDGF) was added to give a final concentration of 25 ng/ml, and the Hepatic stellate cells were cultured for 24 hours. Six hours before the completion of the culturing, bromodeoxyuridine (BrdU) was added to the culture system. After the completion of the culturing, the BrdU uptake into the cells was assayed by ELISA (enzyme-linked immunosorbent assay). As a control, only PDGF (at the final concentration of 25 ng/ml) was added to the culture medium. When the BrdU uptake in the control was defined as 100%, the value of each of the groups was calculated and the results are shown in FIG. 2.
In the same manner as in Example 2, the effects of L-histidine and D-histidine (individually at 30 mM) on the DNA synthesis of Hepatic stellate cells were compared with each other. When the BrdU uptake in the control was defined as 100%, the value of each of the groups was calculated and is shown in FIG. 3.
Hepatic stellate cells were isolated from male Wistar rat liver, and were cultured by the liver perfusion method with pronase E and collagenase. Hepatic stellate cells on day 8 to day 14 were cultured overnight in a culture medium containing 10 vol. % fetal calf serum (FCS). The culture medium was replaced with a 0.1 vol. % FCS culture medium, and it was cultured for 48 hours. Subsequently, L-cysteine, L-histidine or a composition of L-cysteine and L-histidine as a test substance was added thereto. […] When the BrdU uptake in the control was defined as 100%, the value of each of the groups was calculated and the results are shown in FIG. 4.
In general terms: An ELISA detects its analyte on a solid surface through an enzyme-linked reagent.

Assay [2] has as its system Human kidney mesangial cells. In words: DNA synthesis (BrdU uptake, ELISA) of human kidney mesangial cells stimulated with FCS. In kind it is cell-based. The conditions noted are these: 10 or 30 mM, FCS 5 vol. %, 24 hours; FIG. 6. As to the method:
Human kidney mesangial cells were cultured overnight in a culture medium containing 10 vol. % fetal calf serum (FCS). Subsequently, the culture medium was replaced with a 0.1 vol. % FCS culture medium, and it was cultured for 24 hours. Subsequently, L-histidine (His) as a test substance was added in an amount to give a concentration of 10 or 30 mM. Then, further, FCS was added to give a final concentration of 5 vol. %, and the mesangial cells were cultured for 24 hours. Six hours before the completion of the culturing, bromodeoxyuridine (BrdU) was added to the culture system. After the completion of the culturing, the BrdU uptake into the cells was assayed by ELISA (enzyme-linked immunosorbent assay). As a control, only 5 vol. % FCS was added to the culture medium. When the BrdU uptake in the control was defined as 100%, the value of each of the groups was calculated and the results are shown in FIG. 6.

In assay [3] the test system is liver fibrosis induced by dimethylnitroseamine (DMN) in SD rat. In words: DMN-induced liver fibrosis in rat, amount of hydroxyproline (Hyp) in the liver. The format is in vivo. The conditions noted are these: male SD rat, DMN 10 mg/kg i.p. three times weekly for 3 weeks; His 0.2, 0.5, 1.0, 2.0 wt. % in feed, oral; day 21; FIG. 1. As to the method: Dimethylnitroseamine (DMN) was administered intraperitoneally at 10 mg/kg three times weekly to a male 9-week-old SD rat for 3 weeks to induce liver fibrosis. A commercially available feed or experimental diets prepared by adding L-histidine (His) as a test substance at concentrations of 0.2, 0.5, 1.0, and 2.0 wt. % to a commercially available feed were fed beginning on the day of start of DMN administration and thereafter. On day 21 from the start of the DMN administration, the liver was collected to assay the amount of hydroxyproline (Hyp) in the liver as a liver fibrosis marker, using an amino acid analyzer.

The test system of assay [4] is Human normal lung fibroblast cells (HLF-1 cell). In words: DNA synthesis (BrdU uptake, ELISA) of human normal lung fibroblast cells stimulated with PDGF or FCS. The format is cell-based. The note with it: HLF-1, 10 or 30 mM, 24 hours. As to the method:
Human normal lung fibroblast cells (HLF-1 cell) were cultured overnight in a culture medium containing 10 vol. % fetal calf serum (FCS). Subsequently, the culture medium was replaced with a 0.1 vol. % FCS culture medium, and it was cultured for 24 hours. Subsequently, L-histidine (His) as the test substance was added so that the concentration was 10 or 30 mM. Then, further, platelet-derived growth factor (PDGF) was added to give a final concentration of 25 ng/ml or FCS was added to give a final concentration of 5 vol. %, and the HLF-1 cells were cultured for 24 hours. Six hours before the completion of the culturing, bromodeoxyuridine (BrdU) was added to the culture system. After the completion of the culturing, the BrdU uptake into the cells was assayed by ELISA (enzyme-linked immunosorbent assay). As a control, only PDGF (at the final concentration of 25 ng/ml) or FCS (at the final concentration of 5 vol. %) was added to the culture medium.

For assay [5], the system named is liver damage due to D-galactosamine administration. The conditions noted are these: rat given L-histidine; cited from earlier work.
Setting [6] is: 30 mM, levels of suppression of L- and D-form almost equal, FIG. 3.

On to `N[C@H](Cc1c[nH]cn1)C(=O)O` [D-histidine], for which the “DNA synthesis of Hepatic stellate cells activated with PDGF (BrdU uptake)” value in assay [1] (setting [6]) was “strongly suppressed”.
For the compound `N[C@@H](Cc1c[nH]cn1)C(=O)O` [L-histidine], the “DNA synthesis of human kidney mesangial cell with FCS (BrdU uptake)” value in assay [2] was “strongly suppressed”. The “amount of Hyp in the liver (liver fibrosis marker)” value in assay [3] is reported as “significantly decreased”. Besides, the “DNA synthesis of human normal lung fibroblast cell with FCS (BrdU uptake)” value in assay [4] (FCS 5 vol. %, FIG. 5b) is listed as “strongly suppressed”. Moreover, the “DNA synthesis of human normal lung fibroblast cell with PDGF (BrdU uptake)” value in assay [4] (PDGF 25 ng/ml, FIG. 5a) is listed as “strongly suppressed”. Also, the “liver damage due to D-galactosamine administration” value in assay [5] is recorded as “can be reduced”. Further, the “DNA synthesis of Hepatic stellate cells activated with PDGF (BrdU uptake)” value is listed as “strongly suppressed” in assay [1] (setting [6]) and “strongly suppressed” in assay [1] (1 to 30 mM, 24 hours, dose-dependent, FIG. 2).
